# Assay results from patent publication US9198892B2, “Composition and/or method for preventing onset and/or recurrence of cardiovascular events” (MOCHIDA PHARMACEUTICAL CO., LTD., priority 2005, dated 2015).
# What was measured:
# [1] = Serum lipid concentration in the five-year EPA-E trial; type: in vivo, human
# Method: (§1) The observation was conducted by a large scale randomized unblinded controlled trial of the EPA-E group (9,326 cases) and the control group (9,319 cases). The patients were randomized into the groups at the beginning of the trial so that no significant difference is found between the groups in the background factors of the patients, namely, age, sex ratio, history and complication, type and proportion of the HMG-CoA RI, serum lipid concentration, and the like. The patients of both groups were under nutritional counseling, and HMG-CoA RI was administered to them as a base drug.
# (§2) Epadel (Mochida Pharmaceutical Co., Ltd.) was orally administered as EPA-E typically at an adult dose of 600 mg after the meal three times a day. In the case of abnormal serum TG, however, the dose could be increased to 900 mg per administration and three times a day.
# (§3) Pravastatin sodium (Mevalotin tablets and fine granules, Sankyo Co., Ltd.), simvastatin (Lipovas tablets, Banyu Pharmaceutical Co., Ltd.), or atorvastatin calcium hydrate (Lipitor tablets, Astellas Pharma Inc. and Pfizer) was used for the HMG-CoA RI, and these drugs were orally administered according to the predetermined dosage regimen.
# For five years from before the start of the trial to the end of the trial, the concentration of the serum lipid (T-Cho, HDL-Cho, and TG) was periodically measured, and LDL-Cho was calculated by the equation of T-Cho-HDL-Cho-(TG/5). In addition, onset of cardiovascular events (cardiovascular death (fatal myocardial infarction and sudden cardiac death), nonfatal myocardial infarction, cardiovascular angioplasty, new onset of rest angina or effort angina, and destabilization of angina pectoris (hospitalization and cardiovascular angioplasty)) was observed.
# [2] = Five-year large scale randomized unblinded controlled trial of EPA-E: onset of cardiovascular events; type: in vivo, human; settings: five years; for incidence rate of the cardiovascular events / Cases with the cardiovascular events/all cases: EPA-E group
# Method: as §1
# The data was collected from […] participant patients by about 4,900 participant physicians in about 2,900 participant facilities with sufficient case number, randomization, and the strictness required for the controlled trial. For example, in choosing the participant patients, the serum T-Cho concentration was measured twice at an interval of two to four weeks except for the cases where the patients underwent an adequate nutritional consulting with high compliance and the cases where the fasting blood was collected after cessation of the antilipidemic drug, in which the measurement was conducted only once. While untreated patients were preferable, in the case of patients who had been taking an antilipidemic drug for more than six months at the start of the trial, four weeks of drug holidays (eight weeks in the case of probucol) were given. Patients who were administered with the antilipidemic drug for six months or less at the start of the trial were admitted in the trial with no drug holiday, and when the drug was HMG-CoA RI, its administration was continued while other drugs were changed to HMG-CoA RI.
# In order to exclude cardiovascular events in the unstable period after the onset of myocardial infarction and cardiovascular events such as restenosis in the unstable period which is conceived to be caused by the angioplasty itself, the patients at or within six months after the acute myocardial infarction and patients at or within six months after the cardiovascular angioplasty were excluded from the trial subjects, and only patients who are beyond six months after such events and who are conceived to be in the stable period were included in the trial. In addition, patients who are inadequate for the examination of the action of preventing the onset of cardiovascular events for a long time which is the object of this trial, for example, patients of unstable angina pectoris, patients with history or complication of serious heart diseases (such as severe arrhythmia, heart failure, cardiomyopathy, valvular disease, and congenital heart disease), patients at or within six months from the onset of cerebrovascular disorder, and patients with complication of serious liver disease or kidney disease, as well as the patients whose participation was judged to be inappropriate by the attending physician were excluded from the trial.
# as §2, §3
# For five years from before the start of the trial to the end of the trial, the concentration of the serum lipid (T-Cho, HDL-Cho, and TG) was periodically measured, and LDL-Cho was calculated by the equation of T-Cho-HDL-Cho-(TG/5). […]
# [3] = oral 600 mg three times a day immediately after meals (up to 900 mg when serum TG is abnormal); cited from earlier work
# [4] = two-year administration after PTCA; cited from earlier work
# [5] = oral, cited from earlier work
# [6] = EPA-E group with HMG-CoA RI, five years
# [7] = Cardiovascular angioplasty history: No
# [8] = Cardiovascular angioplasty history: Yes
# [9] = Myocardial Infarction history: No
# [10] = Myocardial Infarction history: Yes
smiles,measurement,setting,value
"CC/C=C\C/C=C\C/C=C\C/C=C\C/C=C\CCCC(=O)OCC [EPA-E, ethyl icosapentate]",serum HDL-Cho concentration,[1]; [6],no significant change
same,serum TG concentration,[1]; [6],decreased
same,serum LDL-Cho concentration,"[1]; EPA-E group with HMG-CoA RI, five years, LDL-Cho calculated",decreased
same,serum T-Cho concentration,"[1]; EPA-E group with HMG-CoA RI, observation period of five years",decreased
same,"decrease in the serum TG concentration, EPA-E group versus control group",[1]; five years,more significant
same,Odds ratio (incidence rate of the EPA-E group)/(incidence rate of the control group),[2]; All Cases,0.808
same,Odds ratio (EPA-E group/control group),[2]; [7],0.862
same,Odds ratio (EPA-E group/control group),[2]; [8],0.671
same,incidence rate of the cardiovascular events,[2]; [7],(2.10) %
same,Cases with the cardiovascular events/all cases,[2]; [8],77/533
same,incidence rate of the cardiovascular events,[2]; [8],(14.45) %
same,incidence rate of the cardiovascular events,[2]; [9],(2.05) %
same,Cases with the cardiovascular events/all cases,[2]; [10],82/548
same,incidence rate of the cardiovascular events,[2]; [10],(14.96) %
same,Odds ratio (EPA-E group/control group),[2]; [9],0.811
same,Odds ratio (EPA-E group/control group),[2]; [10],0.744
same,reduction of the incidence rate of the cardiovascular events compared to the control group,[2]; all cases,about 19%
same,decrease of the incidence rate of the cardiovascular events compared to the control group,[2]; patients with history of cardiovascular angioplasty,about 33%
same,decrease of the incidence rate of the cardiovascular events compared to the control group,[2]; patients with history of myocardial infarction,about 26%
same,serum T-Cho concentration reduced,[3],3-6%
CC[C@H](C)C(=O)O[C@H]1C[C@H](O)C=C2C=C[C@H](C)[C@H](CC[C@@H](O)C[C@@H](O)CC(=O)O)[C@H]21 [pravastatin sodium],restenosis rate,[4],reduced the restenosis rate
same,serum HDL-Cho concentration increased,[5]; average 4.9 years,5%
same,serum LDL-Cho concentration decreased,[5]; average 4.9 years,26%
same,serum TG decreased,[5]; average 4.9 years,12%
same,total incidence rate of nonfatal myocardial infarction and cardiovascular death decreased,[5]; average 4.9 years,31%
same,serum T-Cho concentration decreased,"[5]; average period of 4.9 years, male hyperlipidemia patients with no history of myocardial infarction",20%
